Values of other authors, collected in patent US20240115713A1, “POLYETHYLENE GLYCOL CONJUGATE DRUG, AND PREPARATION METHOD THEREFOR AND USE THEREOF” (CHONGQING UPGRA BIOTECHNOLOGY CO., LTD., priority 2020, published 2024).

Biological target: FA receptors
Conditions: read-out: Kd, binding affinity to the FA receptors

For `Nc1nc2ncc(CNc3ccc(C(=O)N[C@@H](CCC(=O)O)C(=O)O)cc3)nc2c(=O)[nH]1` [FA, folic acid], the Kd is listed as roughly 0.1 nM.
